Measured values published in patent US9771334B2, “Triketone compound and preparation method and use thereof” (SHANDONG CYNDA CHEMICAL CO., LTD., priority 2013, dated 2017).

Key:
Assay in all cases: Herbicidal activity, pot culture method (primary and secondary screening test)
Format in all cases: in vivo
Conditions in all cases: primary screening, pot culture, 150 g/ha, sprayed at 3-leaf stage, result 15 days later
[1] = system: amaranthus retroflexus
Outline: (§1)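 Percent growth inhibition of weeds sprayed at the 3-leaf stage, 150 g/ha in the primary screen and a lower dose in the secondary screen, scored 15 days after treatment under greenhouse conditions.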

[2] = system: digitaria sanguinalis
Outline: as §1

[3] = system: echinochloa crusgalli
Outline: as §1

[4] = system: abutilon theophrasti
Outline: as §1

[5] = system: eclipta prostrata
Outline: as §1

[6] = system: setaria viridis
Outline: as §1

SMILES | herbicidal activity inhibition ratio (%), Amaranthus retroflexus [1] | herbicidal activity inhibition ratio (%), Digitaria sanguinalis [2] | herbicidal activity inhibition ratio (%), Echinochloa crusgalli [3] | herbicidal activity inhibition ratio (%), Abutilon theophrasti [4] | herbicidal activity inhibition ratio (%), Eclipta prostrata [5] | herbicidal activity inhibition ratio (%), Setaria viridis [6]
Cc1cccc(C)c1-n1c(=O)c2cc(C(=O)C3=C(O)CC(C)(C)CC3=O)ccc2n(C)c1=O [Compound 98] | 100% | 50% | 85% | 100% | 88% | 80%
Cn1c(=O)n(-c2c(Cl)cccc2Cl)c(=O)c2cc(C(=O)C3=C(O)CC(C)(C)CC3=O)ccc21 [Compound 94] | 95% | 88% | 93% | 95% | 98% | 95%
COc1ccc(-n2c(=O)c3cc(C(=O)C4=C(O)CC(C)(C)CC4=O)ccc3n(C)c2=O)cc1 [Compound 58] | 90% | 88% | 80% | 100% | 68% | 60%
Cn1c(=O)n(-c2ccccc2)c(=O)c2cc(C(=O)C3=C(O)CC(C)(C)CC3=O)ccc21 [Compound 40] | 95% | 85% | 78% | 100% | 80% | 45%
Cc1ccccc1-n1c(=O)c2cc(C(=O)C3=C(O)CCCC3=O)ccc2n(Cc2ccccc2)c1=O [Compound 79] | 0% | 0% | 0% | 0% | 0% | 10%
Cn1c(=O)n(-c2ccccc2)c(=O)c2cc(C(=O)C3=C(O)CCCC3=O)ccc21 [Compound 35] | 100% | 65% | 65% | 80% | 70% | 50%
CCCn1c(=O)n(-c2ccccc2C)c(=O)c2cc(C(=O)C3=C(O)CC(C)(C)CC3=O)ccc21 [Compound 72] | 20% | 20% | 30% | 100% | 60% | 30%
CCCn1c(=O)n(-c2ccccc2C)c(=O)c2cc(C(=O)C3=C(O)CCCC3=O)ccc21 [Compound 71] | 85% | 25% | 80% | 95% | 98% | 98%
Cn1c(=O)n(-c2cc(C(F)(F)F)ccc2Cl)c(=O)c2cc(C(=O)C3=C(O)CCCC3=O)ccc21 [Compound 60] | 70% | 40% | 65% | 100% | 0% | 80%
Cc1ccccc1-n1c(=O)c2cc(C(=O)C3=C(O)CCCC3=O)ccc2n(Cc2ccccc2F)c1=O [Compound 83] | 0% | 30% | 50% | 0% | 90% | 50%
COc1cccc(-n2c(=O)c3cc(C(=O)C4=C(O)CC(C)(C)CC4=O)ccc3n(C)c2=O)c1 [Compound 56] | 80% | 55% | 60% | 55% | 75% | 60%
Cn1c(=O)n(-c2ccc(Cl)cc2)c(=O)c2cc(C(=O)C3=C(O)CC(C)(C)CC3=O)ccc21 [Compound 2] | 95% | 90% | 80% | 100% | 75% | 80%
Cn1c(=O)n(-c2ccc(C(F)(F)F)cc2)c(=O)c2cc(C(=O)C3=C(O)CCCC3=O)ccc21 [Compound 30] | 100% | 60% | 85% | 100% | 60% | 30%
Cn1c(=O)n(-c2cccc(F)c2)c(=O)c2cc(C(=O)C3=C(O)CCCC3=O)ccc21 [Compound 10] | 85% | 75% | 85% | 100% | 80% | 80%
Cn1c(=O)n(-c2cccc(F)c2)c(=O)c2cc(C(=O)C3=C(O)CC(C)(C)CC3=O)ccc21 [Compound 11] | 85% | 95% | 85% | 85% | 85% | 80%
Cc1ccc(Cl)cc1-n1c(=O)c2cc(C(=O)C3=C(O)CCCC3=O)ccc2n(C)c1=O [Compound 33] | 90% | 80% | 85% | 85% | 83% | 60%
Cn1c(=O)n(-c2ccc(F)cc2)c(=O)c2cc(C(=O)C3=C(O)CCCC3=O)ccc21 [Compound 9] | 100% | 75% | 85% | 100% | 95% | 100%
Cn1c(=O)n(-c2ccccc2OC(F)(F)F)c(=O)c2cc(C(=O)C3=C(O)CCCC3=O)ccc21 [Compound 39] | 98% | 85% | 70% | 95% | 85% | 80%
CC(C)c1cccc(C(C)C)c1-n1c(=O)c2cc(C(=O)C3=C(O)CCCC3=O)ccc2n(C)c1=O [Compound 46] | 100% | 55% | 60% | 35% | 70% | 20%
